Target: T1, human KV 1.5 (Homo sapiens, UniProt P22460)
T1 construct: expressed in transfected cells; host or cells: mammalian L-929 cells (mouse fibroblast line)
Experiment: Block of IKur current in patch clamped L-929 cells expressing human Kv1.5
Format: cell-based
Conditions: L929, 0.3 μM; patch clamped mammalian L-929 cells stably expressing human Kv1.5 (IKur); read-out: KV1_5% Inh L929 @0.3 μM
Text: 1. Synders, D. J.; et al., “A rapidly activating and slowly inactivating potassium channel cloned from human heart: functional analysis after stable mammalian cell culture expression”, J. Gen. Physiol., 101:513-543 (1993). […]

T1 sequence (P22460 whole entry): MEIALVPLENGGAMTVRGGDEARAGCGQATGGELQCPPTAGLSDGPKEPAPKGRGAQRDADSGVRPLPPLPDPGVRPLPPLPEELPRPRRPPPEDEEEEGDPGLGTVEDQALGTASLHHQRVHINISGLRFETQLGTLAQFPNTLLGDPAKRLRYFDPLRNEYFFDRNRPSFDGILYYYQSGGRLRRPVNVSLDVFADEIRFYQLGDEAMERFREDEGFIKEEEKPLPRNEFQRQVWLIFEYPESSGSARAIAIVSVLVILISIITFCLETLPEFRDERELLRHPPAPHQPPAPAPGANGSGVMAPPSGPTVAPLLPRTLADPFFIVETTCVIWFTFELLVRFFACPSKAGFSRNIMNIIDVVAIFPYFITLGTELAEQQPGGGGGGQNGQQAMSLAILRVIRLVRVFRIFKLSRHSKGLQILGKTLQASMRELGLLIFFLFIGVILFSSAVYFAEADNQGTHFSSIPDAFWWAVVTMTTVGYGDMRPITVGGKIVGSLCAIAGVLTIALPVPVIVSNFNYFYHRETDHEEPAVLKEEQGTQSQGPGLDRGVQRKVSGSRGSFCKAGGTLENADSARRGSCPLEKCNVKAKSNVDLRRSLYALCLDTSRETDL

Compound | inhibition at 0.3 µM [%]
CC(=O)Nc1ccc(-c2nnc(NCc3ccccc3)c3c(-c4ccccc4)cccc23)cn1 [Example 21, N-(5-(4-(Benzyl-amino)-5-phenylphthalazin-1-yl)pyridin-2-yl)acetamide] | 97.9
CCOC(=O)c1cncc(-c2nnc(NCc3ccccc3)c3c(-c4ccccc4)cccc23)c1 [Example 24, Ethyl 5-(4-(benzyl-amino)-5-phenylphthalazin-1-yl) nicotinate] | 96.5
CC(C)OC(=O)Nc1cncc(-c2nnc(NCc3ccccc3)c3c(-c4ccccc4)cccc23)c1 [Example 4] | 95.4
Cc1cnc(CNC(=O)c2cncc(-c3nnc(NCc4ccccn4)c4c(-c5ccccc5)cccc34)c2)cn1 [Example 45, N-((5-Methylpyrazin-2-yl)methyl)-5-(5-phenyl-4-((pyridin-2-ylmelhyl)amino)phthalazin-1-yl) nicotinamide] | 75.6
CC(C)OCCNC(=O)c1cncc(-c2nnc(NCc3ccccn3)c3c(-c4ccccc4)cccc23)c1 [Example 48, N-(2-Isopropoxyethyl)-5-(5-phenyl-4-((pyridin-2-ylmethyl)amino)phthalazin-1-yl)nicotinamide] | 71.1
OCC(O)c1cncc(-c2nnc(NCc3ccccn3)c3c(-c4ccccc4)cccc23)c1 (racemic) [Example 7, 1-(5-(5-Phenyl-4-(pyridin-2-ylmethylamino)phthalazin-1-yl)pyridin-3-yl)ethane-1,2-diol] | 16
CC(C)(C)CCNC(=O)c1cncc(-c2nnc(NCc3ccccn3)c3c(-c4ccccc4)cccc23)c1 [Example 47, N-(3,3-Dimcthylbutyl)-5-(5-phenyl-4-((pyridin-2-ylmethyl)amino)phthalazin-1-yl)nicotinamide] | 96.4
O=C(N[C@H]1CCC[C@@H]1OCc1ccccc1)c1cncc(-c2nnc(NCc3ccccn3)c3c(-c4ccccc4)cccc23)c1 [Example 49] | 93.9
NC(=O)c1cncc(-c2nnc(NCc3ccccn3)c3c(-c4ccccc4)cccc23)c1 [Example 5, 5-(5-Phenyl-4-(pyridin-2-ylmethylamino)phthalazin-1-yl)nicotinamide] | 76
Nc1ccc(-c2nnc(NCc3ccccc3)c3c(-c4ccccc4)cccc23)cn1 [Example 20, 4-(6-Aminopyridin-3-yl)-N-benzyl-8-phenylphthalazin-1-amine] | 92.8
CC(C)OC(=O)Nc1cncc(-c2nnc(NCc3ccccn3)c3c(-c4ccccc4)cccc23)c1 [Example 12, Isopropyl 5-(5-phenyl-4-(pyridin-2-ylmethylamino)phthalazin-1-yl)pyridin-3-ylcarbamate] | 91.6

Second part, the compound after the results:

inhibition at 0.3 µM [%] | Compound
77.3 | CS(=O)(=O)Nc1cncc(-c2nnc(NCc3ccccc3)c3c(-c4ccccc4)cccc23)c1 [Example 3, N-(5-(4-(Benzylamino)-5-phenylphthalazin-1-yl)pyridin-3-yl)methanesulfonamide]
83.5 | NC(=O)c1cncc(-c2nnc(NCc3ccccc3)c3c(-c4ccccc4)cccc23)c1 [Example 23, 5-(4-(Benzyl-amino)-5-phenylphthalazin-1-yl)nicotinamide]
91.1 | NS(=O)(=O)c1cncc(-c2nnc(NCc3c(F)cccc3F)c3c(-c4ccccc4)cccc23)c1 [Example 36, 5-(4-((2,6-Difluorobenzyl)amino)-5-phenylphthalazin-1-yl)pyridine-3-sulfonamide]
79.5 | NS(=O)(=O)c1cncc(-c2nnc(NCc3ccccn3)c3c(-c4ccccc4)cccc23)c1 [Example 1, 5-(5-Phenyl-4-(pyridin-2-ylmethylamino)phthalazin-1-yl)pyridine-3-sulfonamide]
72.5 | COc1ccccc1CNc1nnc(-c2cncc(S(N)(=O)=O)c2)c2cccc(-c3ccccc3)c12 [Example 19, 5-(4-((2-Methoxy-benzyl)amino)-5-phenylphthalazin-1-yl)pyridine-3-sulfonamide]
86.3 | CC(C)(Nc1nnc(-c2cncc(S(N)(=O)=O)c2)c2cccc(-c3ccccc3)c12)c1ccccn1 [Example 35, 5-(5-Phenyl-4-((2-(pyridin-2-yl)propan-2-yl)amino)phthalazin-1-yl)pyridine-3-sulfonamide]
91.2 | C[C@@H](Nc1nnc(-c2cncc(S(N)(=O)=O)c2)c2cccc(-c3ccccc3)c12)c1ccccc1 [Example 42, (R)-5-(5-Phenyl-4-((1-phenylethyl)amino)phthalazin-1-yl)pyridine-3-sulfonamide]

System: not listed separately
Experiment: Rat PO PK with pH modulators (Pentagastrin or Famotidine pre-treatment)
Format: in vivo
Conditions: not given
Text: (§1) Example 16 is a prodrug of Example 1.

Effect of pH modulators on PO PK (pH dependent absorption) | Compound
mitigated the pH dependent absorption | O=P(O)(O)NS(=O)(=O)c1cncc(-c2nnc(NCc3ccccn3)c3c(-c4ccccc4)cccc23)c1 [Example 16, 5-(5-Phenyl-4-(pyridin-2-ylmethylamino)phthalazin-1-yl)pyridin-3-ylsulfonylphosphoramidic acid]

System: not listed separately
Experiment: In vivo rat PK evaluation of pro-drug cleavage to parent
Conditions: all doses administered PO, parent = Example 1
Text: as §1

Compound | Pro-drug cleavage to the respective parent compound
O=P(O)(O)NS(=O)(=O)c1cncc(-c2nnc(NCc3ccccn3)c3c(-c4ccccc4)cccc23)c1 [Example 16, 5-(5-Phenyl-4-(pyridin-2-ylmethylamino)phthalazin-1-yl)pyridin-3-ylsulfonylphosphoramidic acid] | Pro-drug cleavage to the respective parent compound was demonstrated

From US9242966B2, “Phthalazines as potassium ion channel inhibitors” (BRISTOL-MYERS SQUIBB COMPANY, priority 2013, dated 2016)
